Test results from US12396458B2, “Fused ring substituted aromatic compound and preparation method therefor, herbicidal composition, and use thereof” (Qingdao Kingagroot Chemical Compound Co., Ltd., priority 2020, dated 2025).

Legend:
Assay in all cases: Weeding effect in post-emergence stage (greenhouse pot test)
Format in all cases: in vivo
Conyza japonica = settings: post-emergence, 3 weeks after application, fresh weight control rate
Source text: (§1) The activity level criteria for plant damage (i.e., growth control rate) are as follows:
(§2) Level 5: growth control rate is above 85%; • Level 4: growth control rate is greater than or equal to 60% and less than 85%; • Level 3: growth control rate is greater than or equal to 40% and less than 60%; • Level 2: growth control rate is greater than or equal to 20% and less than 40%; • Level 1: growth control rate is greater than or equal to 5% and less than 20%; • Level 0: growth control rate is less than 5%.
(§3) The above growth control rates are fresh weight control rates.
(§4) Experiment on weeding effect in post-emergence stage:
(§5) Monocotyledonous and dicotyledonous weed seeds (Descurainia sophia, Capsella bursa-pastoris, Abutilon theophrasti, Galium aparine, Stellaria media, Lithospermum arvense, Rorippa indica, Alopecurus aequalis, Alopecurus japonicus, Eleusine indica, Beckmannia syzigachne, Sclerochloa dura, Phleum paniculatum, Veronica didyma Tenore, Bromus japonicus, Aegilops tauschii, Phalaris arundinacea, Amaranthus retrojlexus, Chenopodiaceae, Commelina communis, Sonchus arvensis, convolvulus arvensis, Cirsium setosum, Solanum nigrum, Acalypha australis, Digitaria sanguinalis, Echinochloa crusgalli, Setaria viridis, Setaria glauca, Leptochloa chinensis, Monochoria vaginalis, Sagittaria trifolia, Scirpus juncoides, Cyperus rotundus, Cyperus iria, Cyperus difformis, Fimbristylis, Portulaca oleracea, Xanthium sibiricum, Pharbitis nil, Conyza japonica, etc.) and major crop seeds (wheat, corn, rice, soybean, cotton, oilseed rape, millet, sorghum, potato, sesame, ricinus, etc.) were placed in plastic pots filled with soil, then covered with 0.5-2 cm of soil, allowed to grow in a good greenhouse environment. After 2 weeks of sowing, the test plants were treated in the 2-3 leaf stage. The tested compounds of the present invention were respectively dissolved in acetone, then added with Tween 80 and 1.5 liter/ha of emulsifiable concentrate of methyl oleate as synergist, diluted with a certain amount of water to obtain a solution with a certain concentration, and sprayed with a spray tower onto the plants. After the application, the plants were cultured for 3 weeks in the greenhouse, and then the experimental results of the weeding were counted. The doses of the used compounds were 500, 250, 125, 60, 15, 7.5 g a.i./ha, and the averages were obtained by repeating for three times.

Beckmannia syzigachne = settings: 3 weeks after application, fresh weight control rate
Source text: as §1, §2, §3, §4, §5

Capsella bursa-pastoris = settings: 3 weeks after application, fresh weight control rate
Source text: as §1, §2, §3, §4, §5

Alopecurus japonicus = settings: 3 weeks after application, fresh weight control rate
Source text: as §1, §2, §3, §4, §5

Row | SMILES | Activity level (growth control rate), Conyza japonica (Conyza japonica; dose 15 g a.i./ha) | Activity level (growth control rate), Beckmannia syzigachne (Beckmannia syzigachne; dose 15 g a.i./ha) | Activity level (growth control rate), Capsella bursa-pastoris (Capsella bursa-pastoris; dose 15 g a.i./ha) | Activity level (growth control rate), Alopecurus japonicus (Alopecurus japonicus; dose 15 g a.i./ha) | Activity level (growth control rate), Conyza japonica (Conyza japonica; dose 125 g a.i./ha) | Activity level (growth control rate), Beckmannia syzigachne (Beckmannia syzigachne; dose 125 g a.i./ha) | Activity level (growth control rate), Capsella bursa-pastoris (Capsella bursa-pastoris; dose 125 g a.i./ha) | Activity level (growth control rate), Alopecurus japonicus (Alopecurus japonicus; dose 125 g a.i./ha)
1 | C=CCOC(=O)C12CCCC1C(c1cc(-n3c(=O)cc(C(F)(F)F)n(C)c3=O)c(F)cc1Cl)=NO2 (stereo not shown) [Compound 222] | 4 (Level 4: growth control rate is greater than or equal to 60% and less than 85%) | 5 (Level 5: growth control rate is above 85%) | 5 (Level 5: growth control rate is above 85%) | 5 (Level 5: growth control rate is above 85%) |  |  |  | 
2 | C#CCOC(=O)C12CCCC1C(c1cc(-n3c(=O)cc(C(F)(F)F)n(C)c3=O)c(F)cc1Cl)=NO2 (stereo not shown) [Compound 225] | 4 (Level 4: growth control rate is greater than or equal to 60% and less than 85%) | 5 (Level 5: growth control rate is above 85%) | 5 (Level 5: growth control rate is above 85%) | 5 (Level 5: growth control rate is above 85%) |  |  |  | 
3 | Cn1c(C(F)(F)F)cc(=O)n(-c2cc(C3=NOC4(C(=O)OCCF)CCCC34)c(Cl)cc2F)c1=O (stereo not shown) [Compound 231] | 4 (Level 4: growth control rate is greater than or equal to 60% and less than 85%) | 5 (Level 5: growth control rate is above 85%) | 5 (Level 5: growth control rate is above 85%) | 5 (Level 5: growth control rate is above 85%) |  |  |  | 
4 | COCCOC(=O)C12CCCC1C(c1cc(-n3c(=O)cc(C(F)(F)F)n(C)c3=O)c(F)cc1Cl)=NO2 (stereo not shown) [Compound 245] | 4 (Level 4: growth control rate is greater than or equal to 60% and less than 85%) | 5 (Level 5: growth control rate is above 85%) | 5 (Level 5: growth control rate is above 85%) | 5 (Level 5: growth control rate is above 85%) |  |  |  | 
5 | Cn1c(C(F)(F)F)cc(=O)n(-c2cc(C3=NOC4(C(=O)OCC5CCCO5)CCCC34)c(Cl)cc2F)c1=O (stereo not shown) [Compound 261] | 4 (Level 4: growth control rate is greater than or equal to 60% and less than 85%) | 5 (Level 5: growth control rate is above 85%) | 5 (Level 5: growth control rate is above 85%) | 5 (Level 5: growth control rate is above 85%) |  |  |  | 
6 | CC(C)=NOC(=O)C12CCCC1C(c1cc(-n3c(=O)cc(C(F)(F)F)n(C)c3=O)c(F)cc1Cl)=NO2 (stereo not shown) [Compound 278] | 4 (Level 4: growth control rate is greater than or equal to 60% and less than 85%) | 5 (Level 5: growth control rate is above 85%) | 5 (Level 5: growth control rate is above 85%) | 5 (Level 5: growth control rate is above 85%) |  |  |  | 
7 | Cc1cc(C)n(C(=O)C23CCCC2C(c2cc(-n4c(=O)cc(C(F)(F)F)n(C)c4=O)c(F)cc2Cl)=NO3)n1 (stereo not shown) [Compound 333] | 4 (Level 4: growth control rate is greater than or equal to 60% and less than 85%) | 4 (Level 4: growth control rate is greater than or equal to 60% and less than 85%) | 4 (Level 4: growth control rate is greater than or equal to 60% and less than 85%) | 4 (Level 4: growth control rate is greater than or equal to 60% and less than 85%) |  |  |  | 
8 | COC(=O)C12CCOC1C(c1cc(-n3c(=O)cc(C(F)(F)F)n(C)c3=O)c(F)cc1Cl)=NO2 (stereo not shown) [Compound 372] |  |  |  |  | 4 (Level 4: growth control rate is greater than or equal to 60% and less than 85%) | 4 (Level 4: growth control rate is greater than or equal to 60% and less than 85%) | 5 (Level 5: growth control rate is above 85%) | 4 (Level 4: growth control rate is greater than or equal to 60% and less than 85%)
9 | Cn1c(C(F)(F)F)cc(=O)n(-c2cc(C3=NOC4(C(=O)OCCCl)CCCC34)c(Cl)cc2F)c1=O (stereo not shown) [Compound 424] | 5 (Level 5: growth control rate is above 85%) | 5 (Level 5: growth control rate is above 85%) | 5 (Level 5: growth control rate is above 85%) | 5 (Level 5: growth control rate is above 85%) |  |  |  | 
10 | CCOCOC(=O)C12CCCC1C(c1cc(-n3c(=O)cc(C(F)(F)F)n(C)c3=O)c(F)cc1Cl)=NO2 (stereo not shown) [Compound 425] | 4 (Level 4: growth control rate is greater than or equal to 60% and less than 85%) | 5 (Level 5: growth control rate is above 85%) | 5 (Level 5: growth control rate is above 85%) | 5 (Level 5: growth control rate is above 85%) |  |  |  | 
11 | Cn1c(C(F)(F)F)cc(=O)n(-c2cc(C3=NOC4(C(=O)Oc5ccccc5)CCCC34)c(Cl)cc2F)c1=O (stereo not shown) [Compound 426] | 4 (Level 4: growth control rate is greater than or equal to 60% and less than 85%) | 4 (Level 4: growth control rate is greater than or equal to 60% and less than 85%) | 5 (Level 5: growth control rate is above 85%) | 5 (Level 5: growth control rate is above 85%) |  |  |  | 
12 | Cn1c(C(F)(F)F)cc(=O)n(-c2cc(C3=NOC4(C(=O)N5CCCC5)CCCC34)c(Cl)cc2F)c1=O (stereo not shown) [Compound 427] | 4 (Level 4: growth control rate is greater than or equal to 60% and less than 85%) | 4 (Level 4: growth control rate is greater than or equal to 60% and less than 85%) | 5 (Level 5: growth control rate is above 85%) | 5 (Level 5: growth control rate is above 85%) |  |  |  | 
13 | COC(=O)C12CCC(F)C1C(c1cc(-n3c(=O)cc(C(F)(F)F)n(C)c3=O)c(F)cc1Cl)=NO2 (stereo not shown) [Compound 441] | 4 (Level 4: growth control rate is greater than or equal to 60% and less than 85%) | 4 (Level 4: growth control rate is greater than or equal to 60% and less than 85%) | 5 (Level 5: growth control rate is above 85%) | 4 (Level 4: growth control rate is greater than or equal to 60% and less than 85%) |  |  |  | 
14 | COC(=O)C12CCC(C)C1C(c1cc(-n3c(=O)cc(C(F)(F)F)n(C)c3=O)c(F)cc1Cl)=NO2 (stereo not shown) [Compound 443] | 4 (Level 4: growth control rate is greater than or equal to 60% and less than 85%) | 5 (Level 5: growth control rate is above 85%) | 5 (Level 5: growth control rate is above 85%) | 5 (Level 5: growth control rate is above 85%) |  |  |  | 
15 | CCOC(=O)C12CCC(=NOC)C1C(c1cc(-n3c(=O)cc(C(F)(F)F)n(C)c3=O)c(F)cc1Cl)=NO2 (stereo not shown) [Compound 451] | 4 (Level 4: growth control rate is greater than or equal to 60% and less than 85%) | 4 (Level 4: growth control rate is greater than or equal to 60% and less than 85%) | 5 (Level 5: growth control rate is above 85%) | 4 (Level 4: growth control rate is greater than or equal to 60% and less than 85%) |  |  |  | 
16 | CCOC(=O)C12ON=C(c3cc(-n4c(=O)cc(C(F)(F)F)n(C)c4=O)c(F)cc3Cl)C1CCC2Br (stereo not shown) [Compound 474] | 4 (Level 4: growth control rate is greater than or equal to 60% and less than 85%) | 4 (Level 4: growth control rate is greater than or equal to 60% and less than 85%) | 5 (Level 5: growth control rate is above 85%) | 4 (Level 4: growth control rate is greater than or equal to 60% and less than 85%) |  |  |  | 
